Measurements published in paper PMC8829087 (The Journal of Biological Chemistry, 2021).

Assays:
GLP-1R G168^1.63S = conditions: cited from earlier work
From the text: (§1) Previous in vivo characterizations of missense variants in the GLP-1R and GIPR have pointed to associations between receptor impairments and clinical phenotypes. One example is the more frequently occurring variant of GIPR E354^6.53Q (gnomAD MAF: 0.2). […] Heterozygous carriers of the rare missense variant T14 ...

[1] = test system: GLP-1R variants P7^ECDL, R44^ECDH and L260^ICL2P; conditions: cited from earlier work
From the text: as §1

GLP-1R T149^1.44M = conditions: cited from earlier work
From the text: as §1

[2] = test system: patients with type 2 diabetes, GLP-1R G168^1.63S carriers; conditions: cited from earlier work
From the text: as §1

[3] = molecular target: human glucagon receptor missense variant R225^3.30H (human) (UniProt P47871)
Sequence of UniProt P47871 (P47871 other isoform, or with tags, fused parts or gaps mutant): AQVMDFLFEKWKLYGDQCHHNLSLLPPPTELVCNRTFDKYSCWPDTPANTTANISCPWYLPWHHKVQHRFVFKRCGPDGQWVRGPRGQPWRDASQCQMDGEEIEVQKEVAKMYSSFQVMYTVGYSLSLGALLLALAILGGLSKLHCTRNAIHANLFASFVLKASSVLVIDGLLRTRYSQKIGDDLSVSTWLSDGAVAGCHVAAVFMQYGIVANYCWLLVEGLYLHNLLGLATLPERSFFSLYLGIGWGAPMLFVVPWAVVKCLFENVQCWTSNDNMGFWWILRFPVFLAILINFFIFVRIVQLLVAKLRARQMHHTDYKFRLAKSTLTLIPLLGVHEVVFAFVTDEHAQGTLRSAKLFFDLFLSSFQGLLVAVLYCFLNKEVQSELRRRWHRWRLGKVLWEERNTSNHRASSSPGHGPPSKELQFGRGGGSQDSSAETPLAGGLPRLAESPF

glucagon-like peptide-1 [GLP-1]
receptor signaling and binding affinity of GLP-1 (GLP-1R G168^1.63S): preserved receptor signaling and binding affinity
GLP-1 binding and receptor signaling [1]: wildtype-like GLP-1 binding and receptor signaling
binding capacity of GLP-1 (GLP-1R T149^1.44M): lower binding capacity
receptor signaling (GLP-1R T149^1.44M): impaired receptor signaling capabilities

liraglutide: treatment with liraglutide of patients with type 2 diabetes (HAEGTFTSDVSSYLEGQAAKEFIAWLVRGRG; chains of the INN, looked up)
weight loss and fat mass [2]: improved weight loss and lower fat mass

β-arrestin-2 (Rluc8-Arr3-Sp2) (from UniProt P32121 1-409) (natural protein)
potency (EC50) of glucagon in β-arrestin-2 recruitment, BRET in HEK293, fold decrease against wildtype [3]: 6 fold
